Test results: US4742045A, “Glycopeptide antibiotics” (SmithKline Beckman Corporation, priority 1986, dated 1988)

Columns and labels:
STAPH. AUREUS HH 127 = experiment: prophylactic activity, dosing preinfection; type: in vivo, mice
Group A Strep. = experiment: MIC against an expanded panel; type: cell-based; details: Table 4, Group A Strep. (6 strains)
Source text: (§1) The number of strains tested is shown in parentheses below each organism. The average MIC is reported in μg/ml.

JK Diptheroids = experiment: MIC against an expanded panel; type: cell-based; details: Table 4, JK Diptheroids (19 strains)
Source text: as §1

Coag-neg. Staphylococci = experiment: MIC against an expanded panel; type: cell-based; details: Table 4, Coag-neg. Staphylococci (24 strains)
Source text: as §1

Group B Strep. = experiment: MIC against an expanded panel; type: cell-based; details: Table 4, Group B Strep. (4 strains)
Source text: as §1

Viridans = experiment: MIC against an expanded panel; type: cell-based; details: Table 4, Viridans (2 strains)
Source text: as §1

S. aureus = experiment: mice infected intraperitoneally, dosed 1 hr after infection, ED50; type: in vivo; details: antibiotic i.v. 1 hr post infection
Method: (§2) The in vivo activity of the CWI-785 complex and its components and hydrolysis products was confirmed by administering selected CWI-785 antibiotics to mice infected with various gram-positive pathogens. In one representative assay, in which mice infected intraperitoneally with 46.8 LD50 's of S. aureus (strain 1, Tables 1 and 2) were dosed once, subcutaneously one hour after infection, the following ED50 's (mg/kg) were observed: CWI-785B: 2.4, CWI-785C: 3.1, CWI-785: 3.8, HPB3: 0.9, vancomycin: 0.7. In a second representative assay carried out as above except that mice were infected with 3.17 LD50 's of S. faecalis (strain 9, Table 2), the following ED50 's were observed: HPB3 hydrochloride: 1.6, HPB4 hydrochloride: 1.6, vancomycin: 2.2, teicoplanin: 1.3.
(§3) In Table 6, below, is shown the ED50 in mg/kg of HPB4 in comparison to vancomycin and teicoplanin. Mice were injected i.p. with the indicated organism and then i.v., 1 hr post infection, with the indicated antibiotic.

S. faecalis = experiment: as above; type: in vivo
Method: as §2, §3

Streptococcus pyogenes = experiment: standard microtiter assay, minimum inhibitory concentration; type: cell-based; details: Table 2 test organism 11, Streptococcus pyogenes
Streptococcus faecalis = experiment: as above; type: cell-based
Summary of the method: (§4)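 Standard microtiter broth assays, with MIC reported in μg/ml and averaged over several strains per species. The CWI-785 complex was tested, in some cases as HCl salts. Some runs used no serum, 50% human serum or 50% mouse serum.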

Staphylococcus aureus = experiment: as above; type: cell-based; details: for MIC: Table 5 organism 1 S. aureus
Summary of the method: as §4

S. epidermidis = experiment: mice infected i.p., antibiotic i.v. 1 hr post infection, ED50; type: in vivo; details: S. epidermidis 2479 (>1000 × LD50) i.p., antibiotic i.v. 1 hr post infection
Method: as §3

S. haemolyticus = experiment: as above; type: in vivo; details: S. haemolyticus 651 (8 × LD50) i.p., antibiotic i.v. 1 hr post infection
Method: as §3

[1] = test system: Staphylococcus haemolyticus; experiment: standard microtiter assay, minimum inhibitory concentration; type: cell-based; details: for MIC: Table 5 organism 3 S. haemolyticus
Summary of the method: (§5)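 Broth microtiter MIC (μg/ml) of CWI-785 antibiotic, as complex, individual components or HCl salts, against several staphylococcal strains. Some assays run without serum or in 50% human or 50% mouse serum.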

[2] = test system: Staphylococcus saprophyticus; experiment: as above; type: cell-based; details: for MIC: Table 5 organism 6 S. saprophyticus
Summary of the method: as §5

[3] = Table 4, Strep. faecalis (12 strains)
[4] = Table 4, S. aureus (30 strains)

With teicoplanin the ED50 (STAPH. AUREUS HH 127; Table 8, vs Staph. aureus HH 127 (I.V.)) was 0.405 mg/kg, the “PERCENT SURVIVAL” value (STAPH. AUREUS HH 127; Table 8: 40 mg/kg (I.V.), 6 hr preinfection) was 100% and the MIC50 (Group A Strep.) was “<= 0.025 μg/ml”. For the same substance, the “MIC RANGE” value (Group A Strep.) was <0.025 to 0.4 µg/mL, the MIC50 (JK Diptheroids) was 1.6 µg/mL and the “MIC RANGE” value (JK Diptheroids) was 0.2 to 3.1 µg/mL. For the same substance, the MIC50 (Coag-neg. Staphylococci) was 12.5 µg/mL, the “MIC RANGE” value (Coag-neg. Staphylococci) was 0.8 to 25 µg/mL and the “MIC RANGE” value (Group B Strep.) was 0.1 to 1.6 µg/mL. The “MIC RANGE” value (Viridans) was 0.05 to 0.1 µg/mL, the ED50 (S. aureus; S. aureus 2620 (24 × LD50) i.p.) was 6.0 mg/kg and the ED50 (S. aureus; S. aureus HH 127 (35 × LD50) i.p.) was 2.5 mg/kg. The ED50 (S. faecalis; S. faecalis 34358 (9 × LD50) i.p., antibiotic i.v. 1 hr post infection) was 1.7 mg/kg, the ED50 (S. faecalis; mice infected with 3.17 LD50's of S. faecalis (strain 9, Table 2), dosed once subcutaneously one hour after infection) was 1.3 mg/kg and the minimum inhibitory concentration (Streptococcus pyogenes) was 0.2 µg/mL. The minimum inhibitory concentration (Streptococcus faecalis; Table 2 test organism 9, Streptococcus faecalis strain) was < 0.1 µg/mL, the minimum inhibitory concentration (Streptococcus faecalis; Table 2 test organism 10, Streptococcus faecalis strain) was < 0.1 µg/mL and the MIC50 (Streptococcus faecalis; [3]) was “<= 0.1 μg/ml”. The “MIC RANGE” value (Streptococcus faecalis; [3]) was “<=0.1-0.2 μg/ml”, the MBC50 (Streptococcus faecalis; Table 4, Strep. faecalis MBC50) was 6.3 µg/mL and the “MBC RANGE” value (Streptococcus faecalis; Table 4, Strep. faecalis MBC50 column) was 1.6 to 25 µg/mL. The MIC (Streptococcus faecalis; Table 5 organism 7 S. faecalis, 50% Hum. Serum) was 6.3 µg/mL, the MIC (Streptococcus faecalis; Table 5 organism 7 S. faecalis, 50% Mse. Serum) was 1.6 µg/mL and the MIC (Streptococcus faecalis; Table 5 organism 7 S. faecalis, No Serum) was “<= 0.1 μg/ml”. For the same substance, the MIC (Streptococcus faecalis; Table 5 organism 8 S. faecalis, 50% Hum. Serum) was 6.3 µg/mL, the MIC (Streptococcus faecalis; Table 5 organism 8 S. faecalis, 50% Mse. Serum) was 3.1 µg/mL and the MIC (Streptococcus faecalis; Table 5 organism 8 S. faecalis, No Serum) was “<= 0.1 μg/ml”. It also gave a minimum inhibitory concentration (Staphylococcus aureus; Table 1 test organism 1, S. aureus strain) of 1.6 µg/mL, a minimum inhibitory concentration (Staphylococcus aureus; Table 1 test organism 2, S. aureus strain) of 1.6 µg/mL and a minimum inhibitory concentration (Staphylococcus aureus; Table 1 test organism 3, S. aureus strain) of 3.1 µg/mL. It also gave a minimum inhibitory concentration (Staphylococcus aureus; Table 1 test organism 4, S. aureus strain) of 1.6 µg/mL, a minimum inhibitory concentration (Staphylococcus aureus; Table 1 test organism 5, S. aureus strain) of 1.6 µg/mL and a minimum inhibitory concentration (Staphylococcus aureus; Table 1 test organism 6, S. aureus strain) of 1.6 µg/mL. The minimum inhibitory concentration (Staphylococcus aureus; Table 1 test organism 7, S. aureus strain) was 3.1 µg/mL, the minimum inhibitory concentration (Staphylococcus aureus; Table 1 test organism 8, S. aureus strain) was 6.3 µg/mL and the minimum inhibitory concentration (Staphylococcus aureus; Table 1 test organism 9, S. aureus strain) was 6.3 µg/mL. The minimum inhibitory concentration (Staphylococcus aureus; Table 1 test organism 10, S. aureus strain) was 6.3 µg/mL, the minimum inhibitory concentration (Staphylococcus aureus; Table 1 test organism 11, S. aureus strain) was 3.1 µg/mL and the minimum inhibitory concentration (Staphylococcus aureus; Table 1 test organism 12, S. aureus strain) was 3.1 µg/mL. For the same substance, the minimum inhibitory concentration (Staphylococcus aureus; Table 1 test organism 13, S. aureus strain) was 0.8 µg/mL, the minimum inhibitory concentration (Staphylococcus aureus; Table 2 test organism 1, S. aureus strain) was 3.1 µg/mL and the minimum inhibitory concentration (Staphylococcus aureus; Table 2 test organism 2, S. aureus strain) was 0.8 µg/mL. The minimum inhibitory concentration (Staphylococcus aureus; Table 2 test organism 3, S. aureus strain) was 0.4 µg/mL, the minimum inhibitory concentration (Staphylococcus aureus; Table 2 test organism 4, S. aureus strain) was 3.1 µg/mL and the minimum inhibitory concentration (Staphylococcus aureus; Table 2 test organism 5, S. aureus strain) was 1.6 µg/mL. The MIC50 (Staphylococcus aureus; [4]) was 3.1 µg/mL, the “MIC RANGE” value (Staphylococcus aureus; [4]) was 1.6 to 6.3 µg/mL and the MIC (Staphylococcus aureus; 50% Hum. Serum) was 6.3 µg/mL. For the same substance, the MIC (Staphylococcus aureus; 50% Mse. Serum) was 25.0 µg/mL, the MIC (Staphylococcus aureus; No Serum) was 3.1 µg/mL and the ED50 (S. epidermidis) was < 1.25 mg/kg. For the same substance, the ED50 (S. haemolyticus) was > 100 mg/kg, the minimum inhibitory concentration ([1]; Table 2 test organism 7, Staphylococcus haemolyticus) was 12.5 µg/mL and the MIC ([1]; 50% Hum. Serum) was 50.0 µg/mL. It also gave an MIC ([1]; 50% Mse. Serum) of 50.0 µg/mL, an MIC ([1]; No Serum) of 12.5 µg/mL and a minimum inhibitory concentration ([2]; Table 2 test organism 13, Staphylococcus saprophyticus) of 1.6 µg/mL. It also gave an MIC ([2]; 50% Hum. Serum) of 12.5 µg/mL, an MIC ([2]; 50% Mse. Serum) of 1.6 µg/mL and an MIC ([2]; No Serum) of 1.6 µg/mL.
